{"source": "ChEMBL document CHEMBL2040761", "about": "“Design, synthesis, and evaluation of indanone derivatives as acetylcholinesterase inhibitors and metal-chelating agents” (Bioorg Med Chem Lett, 2012)", "key": {"[1]": {"molecular_target": "Acetylcholinesterase (Electrophorus electricus, UniProt O42275)", "sequence (O42275 whole entry)": "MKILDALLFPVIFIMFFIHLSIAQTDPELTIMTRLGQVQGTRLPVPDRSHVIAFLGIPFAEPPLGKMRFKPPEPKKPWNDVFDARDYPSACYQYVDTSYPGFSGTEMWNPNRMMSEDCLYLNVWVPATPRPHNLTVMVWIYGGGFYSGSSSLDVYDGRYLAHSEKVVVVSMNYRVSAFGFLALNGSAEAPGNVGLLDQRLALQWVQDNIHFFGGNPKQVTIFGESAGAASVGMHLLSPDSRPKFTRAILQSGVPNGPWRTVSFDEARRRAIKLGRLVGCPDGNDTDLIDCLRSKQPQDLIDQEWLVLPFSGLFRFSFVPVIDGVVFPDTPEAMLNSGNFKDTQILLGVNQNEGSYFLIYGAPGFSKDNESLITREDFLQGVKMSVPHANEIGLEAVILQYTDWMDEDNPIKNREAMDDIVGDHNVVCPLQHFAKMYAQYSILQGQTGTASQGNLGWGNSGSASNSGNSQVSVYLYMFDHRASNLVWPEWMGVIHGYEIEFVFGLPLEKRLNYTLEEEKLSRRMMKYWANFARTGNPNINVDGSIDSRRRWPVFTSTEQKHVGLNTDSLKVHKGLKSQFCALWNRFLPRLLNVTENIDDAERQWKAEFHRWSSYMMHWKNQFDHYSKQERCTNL", "description": "Inhibition of electric eel acetylcholine esterase using acetylcholine chloride as substrate incubated for 15 mins prior to substrate addition measured every 1 min by Ellman's assay"}, "[2]": {"molecular_target": "Cholinesterase (Equus caballus, UniProt P81908)", "sequence (P81908 whole entry)": "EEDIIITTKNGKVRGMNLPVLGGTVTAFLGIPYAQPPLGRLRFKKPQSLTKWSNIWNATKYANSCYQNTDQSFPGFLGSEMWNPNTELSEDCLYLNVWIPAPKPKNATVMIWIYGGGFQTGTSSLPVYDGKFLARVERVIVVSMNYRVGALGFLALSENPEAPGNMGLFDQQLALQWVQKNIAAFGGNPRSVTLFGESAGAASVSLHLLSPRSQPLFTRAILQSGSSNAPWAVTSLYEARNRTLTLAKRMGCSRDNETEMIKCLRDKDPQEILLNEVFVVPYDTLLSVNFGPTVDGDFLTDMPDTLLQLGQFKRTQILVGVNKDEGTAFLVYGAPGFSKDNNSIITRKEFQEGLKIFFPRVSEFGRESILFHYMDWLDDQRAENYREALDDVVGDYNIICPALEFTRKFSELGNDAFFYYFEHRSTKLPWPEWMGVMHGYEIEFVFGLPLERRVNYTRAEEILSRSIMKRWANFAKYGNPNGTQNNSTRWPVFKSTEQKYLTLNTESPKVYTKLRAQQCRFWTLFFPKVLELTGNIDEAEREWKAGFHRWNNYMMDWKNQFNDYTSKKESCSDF", "description": "Inhibition of equine serum butyrylcholinesterase using butyrylthiocholine chloride as substrate incubated for 15 mins prior to substrate addition measured every 1 min by Ellman's assay"}, "[3]": {"molecular_target": "Acetylcholinesterase (Electrophorus electricus) (UniProt O42275)", "sequence (O42275 24-633 limits assumed)": "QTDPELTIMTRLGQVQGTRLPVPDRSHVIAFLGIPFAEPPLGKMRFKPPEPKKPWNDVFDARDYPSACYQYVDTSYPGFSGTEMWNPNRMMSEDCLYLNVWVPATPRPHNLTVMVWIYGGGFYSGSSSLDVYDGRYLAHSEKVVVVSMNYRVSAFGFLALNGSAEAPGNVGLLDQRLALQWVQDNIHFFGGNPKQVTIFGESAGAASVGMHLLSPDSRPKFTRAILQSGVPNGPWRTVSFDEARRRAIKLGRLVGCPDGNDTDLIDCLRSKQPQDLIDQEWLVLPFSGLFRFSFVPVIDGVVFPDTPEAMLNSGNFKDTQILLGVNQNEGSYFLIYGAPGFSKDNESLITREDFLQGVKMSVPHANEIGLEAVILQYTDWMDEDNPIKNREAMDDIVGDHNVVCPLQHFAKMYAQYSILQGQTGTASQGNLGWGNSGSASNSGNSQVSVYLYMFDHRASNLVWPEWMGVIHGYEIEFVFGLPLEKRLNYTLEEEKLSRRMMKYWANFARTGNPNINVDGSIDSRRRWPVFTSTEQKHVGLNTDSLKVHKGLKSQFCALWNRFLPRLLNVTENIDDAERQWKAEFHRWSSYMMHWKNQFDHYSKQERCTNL", "assay": "Mixed-type inhibition of electric eel acetylcholine esterase using acetylcholine chloride as substrate at 0.001 to 0.003 uM incubated for 15 mins by Lineweaver Burk plot analysis"}, "[4]": {"molecular_target": "Acetylcholinesterase (Electrophorus electricus) (UniProt O42275)", "assay": "Ratio of tacrine IC50 to compound IC50 for electric eel acetylcholine esterase"}, "[5]": {"molecular_target": "Acetylcholinesterase (Electrophorus electricus) (UniProt O42275)", "assay": "Ratio of donepezil IC50 to compound IC50 for electric eel acetylcholine esterase"}}, "note": "Active and inactive are the calls of the source. The calls are words filed in the database; no cut-off is given here."}
{"compound": "CCN(CC)CCCCOc1cc2c(cc1OC)C/C(=C/c1ccncc1)C2=O", "values": [{"measurement": "IC50", "setting": "[1]", "value": 0.205, "unit": "µM"}, {"measurement": "IC50", "setting": "[2]", "value": 28.9, "unit": "µM"}]}
{"compound": "COc1cc2c(cc1OCCCN1CCCCC1)C(=O)CC2", "values": [{"measurement": "IC50", "setting": "[1]", "value": 0.916, "unit": "µM"}, {"measurement": "IC50", "setting": "[2]", "value": 32.9, "unit": "µM"}]}
{"compound": "COc1cc2c(cc1OCCCCCCN1CCCCC1)C(=O)/C(=C\\c1ccncc1)C2", "values": [{"measurement": "IC50", "setting": "[1]", "value": 0.232, "unit": "µM"}, {"measurement": "IC50", "setting": "[2]", "value": 4.47, "unit": "µM"}]}
{"compound": "COc1cc2c(cc1OCCN1CCCCC1)C(=O)/C(=C\\c1ccccn1)C2", "values": [{"measurement": "IC50", "setting": "[1]", "value": 0.0044, "unit": "µM"}, {"measurement": "IC50", "setting": "[2]", "value": 7.48, "unit": "µM"}]}
{"compound": "COc1cc2c(cc1OCCN1CCCCC1)C(=O)CC2", "values": [{"measurement": "IC50", "setting": "[1]", "value": 3.11, "unit": "µM"}, {"measurement": "IC50", "setting": "[2]", "value": 137, "unit": "µM"}]}
{"compound": "COc1cc2c(cc1OCCCCCN1CCCCC1)C(=O)/C(=C\\c1ccncc1)C2", "values": [{"measurement": "IC50", "setting": "[1]", "value": 0.288, "unit": "µM"}, {"measurement": "IC50", "setting": "[2]", "value": 9.15, "unit": "µM"}]}
{"compound": "COc1cc2c(cc1OCCCCCCCCCN1CCCCC1)C(=O)/C(=C\\c1ccncc1)C2", "values": [{"measurement": "IC50", "setting": "[1]", "value": 0.734, "unit": "µM"}, {"measurement": "IC50", "setting": "[2]", "value": 1.24, "unit": "µM"}]}
{"compound": "COc1cc2c(cc1OCCN1CCCCC1)C(=O)/C(=C\\c1ccncc1)C2", "values": [{"measurement": "inhibition", "setting": "[3]", "value": "Active"}, {"measurement": "Ratio IC50", "setting": "[4]", "value": 47}, {"measurement": "Ratio IC50", "setting": "[5]", "value": 14}, {"measurement": "IC50", "setting": "[1]", "value": 0.0018, "unit": "µM"}, {"measurement": "IC50", "setting": "[2]", "value": 9.5, "unit": "µM"}]}
{"compound": "COc1cc2c(cc1OCCCCN1CCCCC1)C(=O)/C(=C\\c1ccncc1)C2", "values": [{"measurement": "IC50", "setting": "[1]", "value": 0.081, "unit": "µM"}, {"measurement": "IC50", "setting": "[2]", "value": 13.8, "unit": "µM"}]}
{"compound": "COc1cc2c(cc1OCCCCN1CCCC1)C(=O)/C(=C\\c1ccncc1)C2", "values": [{"measurement": "IC50", "setting": "[1]", "value": 0.156, "unit": "µM"}, {"measurement": "IC50", "setting": "[2]", "value": 17.5, "unit": "µM"}]}
{"compound": "COc1cc2c(cc1O)C(=O)/C(=C\\c1ccncc1)C2", "values": [{"measurement": "IC50", "setting": "[1]", "value": 49.6, "unit": "µM"}, {"measurement": "IC50", "setting": "[2]", "value": 247, "unit": "µM"}]}
{"compound": "COc1cc2c(cc1OCCCN1CCCCC1)C(=O)/C(=C\\c1ccncc1)C2", "values": [{"measurement": "IC50", "setting": "[1]", "value": 0.062, "unit": "µM"}, {"measurement": "IC50", "setting": "[2]", "value": 42.7, "unit": "µM"}]}
{"compound": "CCN(CC)CCCCCCOc1cc2c(cc1OC)C/C(=C/c1ccncc1)C2=O", "values": [{"measurement": "IC50", "setting": "[1]", "value": 0.271, "unit": "µM"}, {"measurement": "IC50", "setting": "[2]", "value": 13.4, "unit": "µM"}]}
{"compound": "COc1cc2c(cc1OCCN1CCCCC1)C(=O)C(Cc1ccccc1)C2", "note": "(centres undefined)", "values": [{"measurement": "IC50", "setting": "[1]", "value": 1.27, "unit": "µM"}, {"measurement": "IC50", "setting": "[2]", "value": 9.2, "unit": "µM"}]}
{"compound": "COc1cc2c(cc1OCCCCCCn1ccnc1)C(=O)/C(=C\\c1ccncc1)C2", "values": [{"measurement": "IC50", "setting": "[1]", "value": 2.87, "unit": "µM"}, {"measurement": "IC50", "setting": "[2]", "value": 18.5, "unit": "µM"}]}
{"compound": "COc1cc2c(cc1OCCN1CCCCC1)C(=O)/C(=C\\c1ccccc1)C2", "values": [{"measurement": "IC50", "setting": "[1]", "value": 0.0091, "unit": "µM"}, {"measurement": "IC50", "setting": "[2]", "value": 2.24, "unit": "µM"}]}
{"compound": "COc1cc2c(cc1OCCCCCN1CCCCC1)C(=O)CC2", "values": [{"measurement": "IC50", "setting": "[1]", "value": 0.361, "unit": "µM"}, {"measurement": "IC50", "setting": "[2]", "value": 115, "unit": "µM"}]}
{"compound": "COc1cc2c(cc1O)C(=O)CC2", "values": [{"measurement": "IC50", "setting": "[1]", "value": 92, "unit": "µM"}, {"measurement": "IC50", "setting": "[2]", "value": 258, "unit": "µM"}]}
